# Experimental data reported in patent US20140121182A1, “PROTEASOME INHIBITORS AND PROCESSES FOR THEIR PREPARATION, PURIFICATION AND USE” (Cephalon, Inc., priority 2011, published 2014).
# Tests used:
# [1] = Comparative bioavailability: pharmacokinetic parameters for Compound 1 in rat plasma and blood after single iv and oral doses of its esters; type: in vivo, male Sprague Dawley rats; details: for AUC0-t / AUC0-∞ / CL / Vd / t½ / Cmax / Oral Bioavailability / Tmax: mean ± SEM
# Experimental: Three adult male Sprague Dawley rats are used in each treatment group. The rats are fasted overnight prior to oral dose administration. Intravenous (IV) administration is via the lateral tail vein and oral doses are administered by gavage. The compound is administered iv or orally in a vehicle of phosphate buffered saline.
# For blood collection, each rat (unanesthetized) is placed in a clear Plexiglas® restraining tube, and blood samples (approximately 0.25 mL) are drawn from a lateral tail vein into heparinized collection tubes at predetermined sampling times (0.083, 0.25, 0.5, 1, 2, 4, and 6 hours post dose). No pre-dose samples are obtained. The exception to this procedure is the last sampling time in which the animals are sacrificed by decapitation and trunk blood is obtained rather than blood via a tail vein. The blood samples are placed on wet ice until centrifuged to separate plasma. The whole blood and the plasma fraction are transferred into clean dry tubes, frozen on dry ice and stored at approximately −20° C. pending analysis.
# Blood or plasma is prepared for high performance liquid chromatography (HPLC)/mass spectrometric analysis according to standard protocol following protein precipitation with acetonitrile containing an internal standard. The blood or plasma samples are then analyzed for Compound 1 and alprenolol (internal standard) via HPLC coupled with tandem mass spectrometry.
# The blood and plasma concentration data for all rats are entered into Excel spreadsheets in preparation for pharmacokinetic analysis. Pharmacokinetic parameters for Compound 1 are estimated for each rat by non-compartmental analysis (Gibaldi M, Perrier D. Pharmacokinetics, 2nd edition, Marcel Dekker, New York, Chapter 11, 1982) of the blood or plasma concentration versus time data using WinNonlin software (Professional Version 4.1a, Pharsight Corporation, Palo Alto, Calif., 2003).
# The maximum blood or plasma concentration (Cmax) is the highest observed concentration after an oral dose; tmax is the corresponding time when Cmax is observed. The terminal rate constant for elimination from blood or plasma (β) is estimated by linear regression of the terminal portion of the semi-logarithmic plasma concentration versus time curve. The apparent terminal half-life (t1/2) is calculated as 0.693 divided by β. The area under the blood or plasma concentration versus time curve from time zero to the time of the last measurable concentration (AUC0-t) after a single dose is determined by the linear trapezoidal rule. The area from zero to infinity (AUC0-∞) is calculated as the sum of AUC0-t and the area extrapolated from the last measurable concentration to infinity (Clast/β). Concentrations pre dose are all assumed to be zero for the purpose of calculation of the AUC. Oral bioavailability is determined by dividing the dose normalized oral AUC0-∞ by the […] from iv dosing and multiplying by 100 to express the ratio as a percent.
# The mean±SEM. pharmacokinetic parameters for Compound 1 in male Sprague Dawley rats administered as single iv and oral doses of the citric acid ester of Compound 1 (“Form 1” or “Form 2”) or the diethanolamine ester of Compound 1 (“DEA Adduct”; i.e., boronic ester of Formula X) are shown in Tables 5-10 and corresponding FIGS. 5-10.
# [2] = Storage for approximately one year at ambient indoor temperature and humidity, HPLC purity; type: physicochemical; details: in a vial at the rear of a fume hood
# Experimental: A 100 mL three neck round bottom flask equipped with a stir bar, thermocouple and nitrogen inlet is charged with 6.0 g (16.6 mmol) of Compound 1 (98.5A % purity) and 60 mL of ethyl acetate then stirred for five minutes at room temperature to dissolve the solids. Diethanol amine (1.68 g, 16.0 mmol) is charged and solids begin to form when addition is only ⅔ complete. The white slurry is stirred at room temperature for two hours and then the solids are collected by vacuum filtration, washed with 50 mL of ethyl acetate and dried overnight in a vacuum oven at 40° C. A quantitative yield of the desired product is obtained as a crystalline solid with an HPLC purity of 99.7A %. After storing for approximately one (1) year at ambient indoor temperature and humidity (in a vial at the rear of a fume hood), the HPLC purity was 99.9A %. ^1H NMR (d6-DMSO, 400 MHz) δ 8.8 (t, 1H, J=5.88 Hz), 7.55 (s, 2H), 7.52 (s, 1H), 6.99 (d, 1H, J=8.36 Hz), 6.57 (s, b, 1H), 3.85 (dq, 1H, J=16.1, 5.92 Hz), 3.69 (m, 2H), 3.57 (m, 1H), 3.14 (m, 1H), 2.99 (m, 2H), 2.75 (m, 1H), 2.69 (m, 1H), 1.59 (m, 1H), 1.31 (m, 1H), 1.22 (m, 1H), 0.824 (d, 3H, J=6.64 Hz), 0.797 (D, 3 h, J=6.48 Hz)
# A 15 mL one neck round bottom flask equipped with a stir bar and nitrogen inlet is charged with 0.5 g (1.39 mmol) of Compound 1 (98.5A % purity) and 5 mL of ethyl acetate then stirred for five minutes at room temperature to dissolve the solids. Diisopropanolamine (185 mg, 1.39 mmol) is charged and stirred at room temperature. The white precipitate is collected by vacuum filtration, washed with 5 mL of ethyl acetate and dried overnight under nitrogen on the filter to give 410 mg (0.895 mmol, 64%) of the desired product with an HPLC purity of 99.4A %. […]
# [3] = Storage stability in freezer / under ambient conditions; type: physicochemical
# Text: Compound 1 is obtained as a non-crystalline solid using the process set forth in US 2009/0325903. Compound 1 is obtained as a mixture of monomer and the trimer anhydride N,N′,N″-boroxin-2,4,6-triyltris {{(1R)-3-methylbutane-1,1-diyl]imino(2-oxoethane-2,1-diyl)]}tris(2,5-dichlorobenzamide) (H NMR analysis).
# The citric acid ester of Compound 1 (4-(R,S)-(carboxymethyl)-2-((R)-1-(2-(2,5-dichlorobenzamido)acetamido)-3-methylbutyl)-6-oxo-1,3,2-dioxaborinane-4-carboxylic acid) is obtained as a crystalline solid (Form 1 or Form 2) using the process set forth in US 2009/0325903. The citric acid ester of Compound 1 is stable when stored in the freezer.
# [4] = Compound 1 in blood, 0.3 mg/kg IV
# [5] = Compound 1 in blood, 1 mg/kg IV
# [6] = Compound 1 in blood, 1 mg/kg PO
# [7] = Compound 1 in blood, 3 mg/kg PO
# [8] = Compound 1 in plasma, 0.3 mg/kg IV
# [9] = Compound 1 in plasma, 1 mg/kg IV
# [10] = Compound 1 in plasma, 1 mg/kg PO
# [11] = Compound 1 in plasma, 3 mg/kg PO
molecule,measurement,setting,value
"2,5-Dichloro-N—[(R)-1-[1,3,6,2]dioxazaborocan-2-yl-3-methyl-butylcarbamoyl)methyl]-benzamide [boronic ester of Formula X]",AUC0-t,[1]; [4],168 ± 46 ng·h/mL
same,AUC0-∞,[1]; [4],190 ± 45 ng·h/mL
same,CL,[1]; [4],30 ± 6 mL/min/kg
same,Vd,[1]; [4],5.8 ± 1.9 L/kg
same,t½,[1]; [4],2.2 ± 0.4 h
same,AUC0-t,[1]; [5],509 ± 89 ng·h/mL
same,AUC0-∞,[1]; [5],535 ± 100 ng·h/mL
same,CL,[1]; [5],33 ± 6 mL/min/kg
same,Vd,[1]; [5],3.9 ± 0.7 L/kg
same,t½,[1]; [5],1.4 ± 0.2 h
same,AUC0-t,[1]; [6],166 ± 16 ng·h/mL
same,AUC0-∞,[1]; [6],200 ± 17 ng·h/mL
same,Cmax,[1]; [6],92 ± 39 ng/mL
same,Oral Bioavailability,[1]; [6],32 ± 1%
same,Tmax,[1]; [6],0.3 ± 0.1 h
same,t½,[1]; [6],2.8 h
same,AUC0-t,[1]; [7],336 ± 69 ng·h/mL
same,AUC0-∞,[1]; [7],381 ± 78 ng·h/mL
same,Cmax,[1]; [7],205 ± 84 ng/mL
same,Oral Bioavailability,[1]; [7],23 ± 4%
same,Tmax,[1]; [7],0.8 ± 0.6 h
same,t½,[1]; [7],1.7 ± 0.2 h
same,AUC0-t,[1]; [8],449 ± 256 ng·h/mL
same,AUC0-∞,[1]; [8],457 ± 254 ng·h/mL
same,CL,[1]; [8],20 ± 9 mL/min/kg
same,Vd,[1]; [8],0.9 ± 0.3 L/kg
same,t½,[1]; [8],0.6 ± 0.1 h
same,AUC0-t,[1]; [9],1225 ± 42 ng·h/mL
same,AUC0-∞,[1]; [9],1240 ± 47 ng·h/mL
same,CL,[1]; [9],13 ± 1 mL/min/kg
same,Vd,[1]; [9],1.2 ± 0.1 L/kg
same,t½,[1]; [9],1.1 ± 0.1 h
same,AUC0-t,[1]; [10],170 ± 16 ng·h/mL
same,AUC0-∞,[1]; [10],182 ± 17 ng·h/mL
same,Cmax,[1]; [10],179 ± 39 ng/mL
same,Oral Bioavailability,[1]; [10],12 ± 1%
same,Tmax,[1]; [10],0.3 ± 0.1 h
same,AUC0-t,[1]; [11],990 ± 310 ng·h/mL
same,AUC0-∞,[1]; [11],1029 ± 299 ng·h/mL
same,Cmax,[1]; [11],567 ± 185 ng/mL
same,Oral Bioavailability,[1]; [11],27 ± 8%
same,Tmax,[1]; [11],0.5 ± 0.0 h
same,t½,[1]; [11],1.1 ± 0.1 h
same,oral bioavailability (conclusion in words),[1]; conclusion from Tables 5-10,orally bioavailable
same,HPLC purity after storing for approximately one (1) year,[2],99.9 A %
"CC(C)C[C@H](NC(=O)CNC(=O)c1cc(Cl)ccc1Cl)B1OC(=O)CC(CC(=O)O)(C(=O)O)O1 (mixture of isomers) [citric acid ester of Compound 1, 4-(R,S)-(carboxymethyl)-2-((R)-1-(2-(2,5-dichlorobenzamido)acetamido)-3-methylbutyl)-6-oxo-1,3,2-dioxaborinane-4-carboxylic acid, reference compound]",storage stability,[3]; stored in the freezer,stable
"CC(C)C[C@H](NC(=O)CNC(=O)c1cc(Cl)ccc1Cl)B1OC(=O)CN(C)CC(=O)O1 [2,5-Dichloro-N—{[(R)-3-methyl-1-(6-methyl-4,8-dioxo-[1,3,6,2]dioxazaborocan-2-yl)-butylcarbamoyl]-methyl}benzamide]",HPLC purity after storing for approximately one (1) year,[2],84.4 A %
"CC(C)C[C@H](NC(=O)CNC(=O)c1cc(Cl)ccc1Cl)B(O)O [Compound 1, [(1R)-1-({[(2,5-dichlorobenzoyl)amino]acetyl}amino)-3-methylbutyl]boronic acid]",storage stability,[3]; ambient conditions,not storage stable
same,storage stability,[3]; stored in the freezer,stable
"CC(C)C[C@H](NC(=O)CNC(=O)c1cc(Cl)ccc1Cl)B1OC(C)CNCC(C)O1 (stereo partly drawn) [boronic ester of Formula IX, 2,5-Dichloro-N-{[(R)-1-(4,8-dimethyl-[1,3,6,2]dioxazaborocan-2-yl)-3-methyl-butylcarbamoyl]-methyl}benzamide]",HPLC purity after storing for approximately one (1) year,[2],99.8 A %
